Data from patent US20110112147A1, “INDAZOLONE ANALOGS AS GLYCOGEN SYNTHASE ACTIVATORS” (priority 2009, published 2011).

Test system: glycogen synthase
Assay: Glycogen Synthase (GS) Assay
Format: biochemical
Conditions: for EC50: compound concentration needed to give 50% maximum activation; for GS SC200: compound concentration needed to stimulate 200% of the enzyme activity
Method: Twelve μL per well of substrate solution containing glycogen (4.32 mg/ml), 2.67 mM UDP-glucose, 21.6 mM phospho(enol)pyruvate and 2.7 mM NADH in 30 mM glycylglycine, pH 7.3 buffer was added into a polystyrene 384-well assay plate (BD Biosciences).
Compound solutions (8 μL/well) at various concentrations (0-300 μM) were added to the assay plate (columns 5-24). Compound solution contains 30 mM glycylglycine, pH 7.3, 40 mM KCl, 20 mM MgCl2, 9.2% DMSO, with (columns 15-24) or without (columns 5-14) 20 mM glucose 6-phosphate.
Enzyme solution (12 μL/well) containing glycogen synthase (16.88 μg/ml), pyruvate kinase (0.27 mg/ml), lactate dehydrogenase (0.27 mg/ml) in 50 mM Tris-HCl, pH 8.0, 27 mM DTT and bovine serum albumin (BSA, 0.2 mg/ml) was added to the assay plate (columns 3-24). As a blank control, enzyme solution without glycogen synthase was added into the top half wells of columns 1-2. To the bottom half wells of columns 1-2 were added a known activator, glucose 6-phosphate (at final concentration 5 mM) in addition to the enzyme solution. The reaction mixture was incubated at room temperature. The assay plate was then read for absorbance at 340 nm on an Envision reader every 3 minutes up to a total of 15 minutes.
The enzyme activity (with or without compound) was calculated by the reaction rate and represented by the optical density change (δOD) per minute. Percent stimulation of glycogen synthase activity by a compound at various concentrations was calculated by the following formula: […]
wherein Rs is the reaction rate of the enzyme in the presence of compound and Rt is the reaction rate of the enzyme in the absence of compound.
SC200 is defined as the compound concentration that is needed to stimulate 200% of the enzyme activity. EC50 is defined as the compound concentration that is needed to give 50% maximum activation.

SMILES | EC50 | GS SC200
COc1cc(F)c(F)cc1-c1ccc(OCc2cccc3c(=O)n(-c4ccc(F)cc4)[nH]c23)cc1 [Example 11, 7-(4′,5′-Difluoro-2′-methoxy-biphenyl-4-yloxymethyl)-2-(4-fluoro-phenyl)-1,2-dihydro-indazol-3-one] | 1370 nM | 2.01 µM
O=c1c2cccc(COc3ccc(-c4cc(F)c(F)cc4Cl)cc3)c2[nH]n1C[C@@H](O)CO [Example 21, 7-(2′-Chloro-4′,5′-difluoro-biphenyl-4-yloxymethyl)-2-((R)-2,3-dihydroxy-propyl)-1,2-dihydro-indazol-3-one] | 260 nM | 0.25 µM
COc1cc(F)c(F)cc1-c1ccc(OCc2cccc3c(=O)n(CC(=O)O)[nH]c23)cc1 [Example 5, [7-(4′,5′-Difluoro-2′-methoxy-biphenyl-4-yloxymethyl)-3-oxo-1,3-dihydro-indazol-2-yl]-acetic acid] | 200 nM | 0.06 µM
COc1cc(F)c(F)cc1-c1ccc(OCc2cccc3c(=O)n(C[C@@H](O)CO)[nH]c23)cc1 [Example 17, 7-(4′,5′-Difluoro-2′-methoxy-biphenyl-4-yloxymethyl)-2-((R)-2,3-dihydroxy-propyl)-1,2-dihydro-indazol-3-one] | 270 nM | 0.06 µM
COCCn1[nH]c2c(COc3ccc(-c4cc(F)c(F)cc4OC)cc3)cccc2c1=O [Example 7, 7-(4′,5′-Difluoro-2′-methoxy-biphenyl-4-yloxymethyl)-2-(2-methoxy-ethyl)-1,2-dihydro-indazol-3-one] | 370 nM | 0.11 µM
O=c1c2cccc(COc3ccc(-c4cc(F)c(F)cc4Cl)cc3)c2[nH]n1C[C@H](O)CO [Example 22, 7-(2′-Chloro-4′,5′-difluoro-biphenyl-4-yloxymethyl)-2-((S)-2,3-dihydroxy-propyl)-1,2-dihydro-indazol-3-one] | 300 nM | 0.16 µM
Cc1cc(F)c(F)cc1-c1ccc(OCc2cccc3c(=O)n(CC(=O)O)[nH]c23)cc1.Cl [Example 9, [7-(4′,5′-Difluoro-2′-methyl-biphenyl-4-yloxymethyl)-3-oxo-1,3-dihydro-indazol-2-yl]acetic acid Hydrochloride] | 420 nM | 0.33 µM
O=c1c2cccc(COc3ccc(-c4cc(F)c(F)cc4F)cc3)c2[nH]n1C[C@H](O)CO [Example 16, 2-((S)-2,3-Dihydroxy-propyl)-7-(2′,4′,5′-trifluoro-biphenyl-4-yloxymethyl)-1,2-dihydro-indazol-3-one] | 580 nM | 0.41 µM
O=c1c2cccc(COc3ccc(-c4cc(F)c(F)cc4F)cc3)c2[nH]n1CCO [Example 8, 2-(2-Hydroxy-ethyl)-7-(2′,4′,5′-trifluoro-biphenyl-4-yloxymethyl)-1,2-dihydro-indazol-3-one] | 770 nM | 0.22 µM
Cc1cc(F)c(F)cc1-c1ccc(OCc2cccc3c(=O)n(C[C@H](O)CO)[nH]c23)cc1 [Example 20, 7-(4′,5′-Difluoro-2′-methyl-biphenyl-4-yloxymethyl)-2-((S)-2,3-dihydroxy-propyl)-1,2-dihydro-indazol-3-one] | 340 nM | 0.11 µM
Cc1cc(F)c(F)cc1-c1ccc(OCc2cccc3c(=O)n(C)[nH]c23)cc1 [Example 1, 7-(4′,5′-Difluoro-2′-methyl-biphenyl-4-yloxymethyl)-2-methyl-1,2-dihydro-indazol-3-one] | 240 nM | 0.13 µM
Cl.O=c1c2cccc(COc3ccc(-c4cc(F)c(F)cc4F)cc3)c2[nH]n1-c1cccnc1 [Example 13, 2-Pyridin-3-yl-7-(2′,4′,5′-trifluoro-biphenyl-4-yloxymethyl)-1,2-dihydro-indazol-3-one Hydrochloride] | 4010 nM | 2.75 µM
O=c1c2cccc(COc3ccc(-c4cc(F)c(F)cc4F)cc3)c2[nH]n1C[C@@H](O)CO [Example 15, 2-((R)-2,3-Dihydroxy-propyl)-7-(2′,4′,5′-trifluoro-biphenyl-4-yloxymethyl)-1,2-dihydro-indazol-3-one] | 680 nM | 0.32 µM
COc1cc(F)c(F)cc1-c1ccc(OCc2cccc3c(=O)n(-c4cccnc4)[nH]c23)cc1 [Example 12, 7-(4′,5′-Difluoro-2′-methoxy-biphenyl-4-yloxymethyl)-2-pyridin-3-yl-1,2-dihydro-indazol-3-one] | 780 nM | 0.60 µM
COc1cc(F)c(F)cc1-c1ccc(OCc2cccc3c(=O)n(C)[nH]c23)cc1 [Example 3, 7-(4′,5′-Difluoro-2′-methoxy-biphenyl-4-yloxymethyl)-2-methyl-1,2-dihydro-indazol-3-one] | 330 nM | 0.04 µM
Cc1cc(F)c(F)cc1-c1ccc(OCc2cccc3c(=O)n(-c4ccc(F)cc4)[nH]c23)cc1 [Example 10, 7-(4′,5′-Difluoro-2′-methyl-biphenyl-4-yloxymethyl)-2-(4-fluoro-phenyl)-1,2-dihydro-indazol-3-one] | 1470 nM | 1.86 µM
Cc1cc(F)c(F)cc1-c1ccc(OCc2cccc3c(=O)n(C[C@@H](O)CO)[nH]c23)cc1 [Example 19, 7-(4′,5′-Difluoro-2′-methyl-biphenyl-4-yloxymethyl)-2-((R)-2,3-dihydroxy-propyl)-1,2-dihydro-indazol-3-one] | 230 nM | 0.10 µM
COc1cc(F)c(F)cc1-c1ccc(OCc2cccc3c(=O)n(C[C@H](O)CO)[nH]c23)cc1 [Example 18, 7-(4′,5′-Difluoro-2′-methoxy-biphenyl-4-yloxymethyl)-2-((S)-2,3-dihydroxy-propyl)-1,2-dihydro-indazol-3-one] | 250 nM | 0.07 µM
O=C(O)Cn1[nH]c2c(COc3ccc(-c4cc(F)c(F)cc4F)cc3)cccc2c1=O [Example 4, [3-oxo-7-(2′,4′,5′-trifluoro-biphenyl-4-yloxymethyl)-1,3-dihydro-indazol-2-yl]-acetic acid] | 1200 nM | 0.69 µM
O=c1c2cccc(COc3ccc(-c4cc(F)c(F)cc4Cl)cc3)c2[nH]n1-c1cccnc1 [Example 14, 7-(4′,5′-Difluoro-2′-chloro-biphenyl-4-yloxymethyl)-2-pyridin-3-yl-1,2-dihydro-indazol-3-one] | 1860 nM | 1.14 µM
Cn1[nH]c2c(COc3ccc(-c4cc(F)c(F)cc4F)cc3)cccc2c1=O [Example 2, 2-Methyl-7-(2′,4′,5′-trifluoro-biphenyl-4-yloxymethyl)-1,2-dihydro-indazol-3-one] | 1780 nM | 0.49 µM
COCCn1[nH]c2c(COc3ccc(-c4cc(F)c(F)cc4F)cc3)cccc2c1=O.Cl [Example 6, 2-(2-Methoxy-ethyl)-7-(2′,4′,5′-trifluoro-biphenyl-4-yloxymethyl)-1,2-dihydro-indazol-3-one Hydrochloride] | 790 nM | 0.52 µM
